ChEMBL document CHEMBL1201862, “PubChem BioAssay data set” (2004)
Activity calls are given as the source filed them.

Tests used:
[1] = target: Peroxisome proliferator-activated receptor gamma/Nuclear receptor coactivator 1 (Homo sapiens, UniProt P37231); test: TR-FRET dose response biochemical High Throughput Screening assay for agonists of the steroid receptor coactivator 1 (SRC-1) recruitment by the peroxisome proliferator-activated receptor gamma (PPAR gamma): non-selective agonists. [Related pubchem assays (depositor defined):AID1300, AID1808, AID504735, AID631]; assay type: protein assay
[2] = target: Peroxisome proliferator-activated receptor gamma/Nuclear receptor coactivator 3 (Homo sapiens, UniProt P37231); test: TR-FRET dose response biochemical High Throughput Screening assay for agonists of the steroid receptor coactivator 3 (SRC-3) recruitment by the peroxisome proliferator-activated receptor gamma (PPAR gamma): non-selective agonists. [Related pubchem assays: 1301 (Confirmation screen.), 1048 (Primary screen.)]; assay type: functional
[3] = target: Peroxisome proliferator-activated receptor gamma/Nuclear receptor coactivator 2 (Homo sapiens, UniProt P37231); test: TR-FRET dose response biochemical High Throughput Screening assay for agonists of the steroid receptor coactivator 2 (SRC-2) recruitment by the peroxisome proliferator-activated receptor gamma (PPAR gamma): non-selective agonists. [Related pubchem assays: 1297, 1032 ]; assay type: functional
[4] = Counterscreen for AddAB inhibitors: absorbance-based bacterial cell-based high throughput dose response assay for inhibitors of bacterial viability. [Related pubchem assays (depositor defined):AID435030, AID449728, AID449731, AID488942, AID488955, AID488956]; assay type: functional
Exodeoxyribonuclease V = Exodeoxyribonuclease V (Escherichia coli (strain K12), UniProt P04993+P07648+P08394); test: RecBCD inhibition via phage-restricted bacterial growth – absorbance, V66 E. coli, mutant T4 phage, counter-screen for AddAB inhibitor project, dose response (AID 492957); assay type: functional, cell-based, Escherichia coli str. K-12 substr. MG1655
CAAX prenyl protease 2 [5] = target: T1, CAAX prenyl protease 2 (Saccharomyces cerevisiae S288c, UniProt Q03530); assay type: biochemical
T1 sequence (Q03530 whole entry): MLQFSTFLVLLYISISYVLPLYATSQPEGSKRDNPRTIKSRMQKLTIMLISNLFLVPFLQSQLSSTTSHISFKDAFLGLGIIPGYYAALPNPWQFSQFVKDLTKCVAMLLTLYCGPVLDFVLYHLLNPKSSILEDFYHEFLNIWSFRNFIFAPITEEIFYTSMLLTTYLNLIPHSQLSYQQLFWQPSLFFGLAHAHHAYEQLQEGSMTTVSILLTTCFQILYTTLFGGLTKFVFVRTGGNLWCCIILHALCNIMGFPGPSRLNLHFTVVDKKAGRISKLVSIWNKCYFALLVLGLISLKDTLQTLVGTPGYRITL

CAAX prenyl protease 1 = CAAX prenyl protease 1 (Saccharomyces cerevisiae S288c, UniProt P47154); test: yeast CAAX protease Ste24 inhibition – biochemical, S. cerevisiae, plate reader, cherry-pick, dose response (AID 488815)
Trypsin = Trypsin (Sus scrofa, UniProt P00761); test: trypsin protease activity blockade – biochemical, quenched peptide fluorescence, cherry-pick, selectivity assay for Rce1 protease inhibitor project, dose response (AID 488789)
CAAX prenyl protease 2 [6] = target: T2, CAAX prenyl protease 2 (Homo sapiens, UniProt Q9Y256); test: inhibition of Ras-converting CAAX protease Rce1 – biochemical, yeast membranes, quenched-peptide fluorescence, cherry-pick, dose response (AID 588849)
T2 sequence (Q9Y256 whole entry): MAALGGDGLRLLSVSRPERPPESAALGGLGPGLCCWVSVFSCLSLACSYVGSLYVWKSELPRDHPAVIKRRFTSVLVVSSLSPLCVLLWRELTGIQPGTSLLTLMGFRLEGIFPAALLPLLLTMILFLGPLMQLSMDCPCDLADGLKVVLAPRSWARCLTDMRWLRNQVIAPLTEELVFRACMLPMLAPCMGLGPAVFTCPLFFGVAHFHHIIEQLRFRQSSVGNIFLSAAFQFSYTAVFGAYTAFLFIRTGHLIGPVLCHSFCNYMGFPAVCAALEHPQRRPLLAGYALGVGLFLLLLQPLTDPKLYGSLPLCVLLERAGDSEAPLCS

INS1 = test: INS-1E survival protection against cytokine death – cell-based, luminescence, retest, dose response (AID 449756); assay type: functional; settings: Rattus norvegicus;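 note: cell death triggered by IL-1 beta plus TNF-alpha plus IFN-gamma mixture; protective hits raise ATP signal compared with cytokine alone wells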
[7] = NIH3T3 cell viability loss – ATP luminescence, mouse fibroblasts, counter-screen, dose response (AID 2010); assay type: functional, cell-based;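 note: cells exposed to compound for about 90 hours before reading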
[8] = HEK-293T viability loss, compound-treated – cell-based, uHTS hits, cytotoxicity control for B/T-cell NF-kB inhibitor project, dose response (AID 489019); assay type: functional;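 note: IC50 reflects cytotoxicity as loss of cell viability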
Jurkat = test: blockers of NF-kB activation in T cells – Jurkat, luciferase reporter, luminescence, B- and T-cell, dose response (AID 489004); assay type: functional, cell-based; settings: Homo sapiens;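 note: NF-kB luciferase reporter Jurkat cells stimulated with PMA plus ionomycin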
[9] = target: T3, Short transient receptor potential channel 4 (Mus musculus, UniProt Q9QUQ5); test: block of DAMGO-driven TRPC4 calcium entry – cell-based, HEK293 TRPC4/mu-opioid, Fluo-4 calcium, dose response (AID 434942); assay type: functional;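 note: potency of inhibitors blocking the TRPC4 calcium response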
T3 sequence (Q9QUQ5 whole entry): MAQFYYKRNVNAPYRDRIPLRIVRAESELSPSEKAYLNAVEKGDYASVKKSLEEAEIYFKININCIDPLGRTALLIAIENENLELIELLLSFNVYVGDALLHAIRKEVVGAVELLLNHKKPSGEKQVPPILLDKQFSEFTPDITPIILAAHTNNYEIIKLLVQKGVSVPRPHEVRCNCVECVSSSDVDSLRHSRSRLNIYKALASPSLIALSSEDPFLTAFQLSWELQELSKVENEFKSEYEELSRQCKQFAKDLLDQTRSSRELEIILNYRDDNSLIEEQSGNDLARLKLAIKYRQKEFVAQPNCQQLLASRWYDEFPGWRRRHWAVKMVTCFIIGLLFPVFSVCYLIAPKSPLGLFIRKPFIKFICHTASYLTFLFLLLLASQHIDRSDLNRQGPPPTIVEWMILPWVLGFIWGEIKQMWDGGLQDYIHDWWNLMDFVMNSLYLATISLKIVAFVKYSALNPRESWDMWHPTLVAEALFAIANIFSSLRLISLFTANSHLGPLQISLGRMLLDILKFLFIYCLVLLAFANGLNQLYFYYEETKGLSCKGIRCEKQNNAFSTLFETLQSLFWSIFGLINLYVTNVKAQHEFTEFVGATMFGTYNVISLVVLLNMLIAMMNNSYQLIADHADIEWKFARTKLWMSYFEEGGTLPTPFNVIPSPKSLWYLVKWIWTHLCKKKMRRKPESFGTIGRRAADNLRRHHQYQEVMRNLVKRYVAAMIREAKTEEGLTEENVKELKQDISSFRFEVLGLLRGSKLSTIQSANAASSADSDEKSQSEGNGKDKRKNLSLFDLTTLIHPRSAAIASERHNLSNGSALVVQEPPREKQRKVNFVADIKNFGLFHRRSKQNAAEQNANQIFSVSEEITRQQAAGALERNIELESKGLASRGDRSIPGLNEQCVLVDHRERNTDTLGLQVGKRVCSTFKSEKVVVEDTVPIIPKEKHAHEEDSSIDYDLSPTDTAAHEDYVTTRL

[10] = Trypanosoma cruzi growth suppression in host cells – NIH3T3 host cells, beta-gal luminescence, confirmation (AID 2044); assay type: functional, cell-based;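 note: intracellular parasites grown in NIH/3T3 mouse fibroblasts as host cells; luminescent beta-galactosidase reporter signal from transgenic T. cruzi replicating inside host cells; inhibitors lower the luminescence signal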
[11] = non-specific 3'UTR reporter inhibition in Clone20-Shn3RL – cell-based, Renilla luciferase, cherry-picked, counter-screen for Shn3 inhibitor project, dose response (AID 624133); assay type: functional
[12] = loss of viability in HepG2 cells – cell-based, CellTiter-Glo, cherry-picked, cytotoxicity control for Shn3 inhibitor project, dose response (AID 624134); assay type: functional
[13] = Luminescence Cell-Based Dose Confirmation HTS to Identify Inhibitors of Platelet Dense Granule Release. [Related pubchem assays: 1663 (Primary HTS), 1678 (Summary of Project)]; assay type: functional
[14] = target: Luciferin 4-monooxygenase (Photinus pyralis, UniProt P08659); test: inhibition of purified Photinus pyralis luciferase – biochemical, luminescence, dose response (AID 1891)
[15] = reduction of Shn3 3'UTR-driven luciferase in osteoblasts – cell-based, Clone20 osteoblasts, firefly luciferase, cherry-picked, dose response (AID 624132); assay type: functional;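 note: firefly luciferase luminescence from reporter carrying the Shn3 3'UTR in osteoblasts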
[16] = toxicity toward HepG2 liver cells – cell-based, plate reader, cherry-pick, antagonist series, cytotoxicity control, dose response (AID 743416); assay type: functional
[17] = blockade of melanocortin 4 receptor signaling – cell-based, plate reader, cherry pick, counter-screen for LGR2 antagonist project, dose response (AID 743444); assay type: functional;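 note: transfected HEK 293 cells stimulated with alpha-MSH peptide; potency of inhibitors of the alpha-MSH evoked signal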
[18] = target: Heat shock protein HSP 90-alpha (Homo sapiens, UniProt P07900); assay type: functional, organism-based
[19] = blockers of bursicon-stimulated LGR2 cAMP reporter – cell-based, HEK293, CRE-luciferase reporter, cherry pick, set 2, dose response (AID 743343); assay type: functional;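 note: transfected cells were stimulated with diluted bursicon conditioned medium after compound addition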
[20] = viability loss in HEK293 cells – cell-based, plate reader, cherry-picked samples, cytotoxicity control, dose response (AID 743446); assay type: functional
[21] = A549 cell cytotoxicity, dose response, cytotoxicity control, plate reader, cherry-pick, antagonist series (AID 743412); assay type: functional, cell-based
[22] = target: T4, E3 ubiquitin-protein ligase XIAP (Homo sapiens, UniProt P98170); test: small molecules displacing peptide from XIAP – biochemical, IAP family, fluorescence polarization (AID 1018); assay type: functional
[23] = target: T4, E3 ubiquitin-protein ligase XIAP; test: Counter Screen using XIAP-Bir3 for Chemical Antagonists of Bir1/2 domains of IAP-family anti-apoptotic proteins. [Related pubchem assays (depositor defined):AID1018, AID1449, AID1514, AID1638, AID1749, AID1750, AID488957, AID488963]
[24] = target: T5, Rac GTPase-activating protein 1 (Homo sapiens, UniProt Q9H0H5); test: blockers of MgcRacGAP-driven Rac1 GTP hydrolysis – biochemical, ADP Hunter fluorescence, primary and confirmatory, confirmation (AID 624330); assay type: functional
T5 sequence (Q9H0H5 whole entry): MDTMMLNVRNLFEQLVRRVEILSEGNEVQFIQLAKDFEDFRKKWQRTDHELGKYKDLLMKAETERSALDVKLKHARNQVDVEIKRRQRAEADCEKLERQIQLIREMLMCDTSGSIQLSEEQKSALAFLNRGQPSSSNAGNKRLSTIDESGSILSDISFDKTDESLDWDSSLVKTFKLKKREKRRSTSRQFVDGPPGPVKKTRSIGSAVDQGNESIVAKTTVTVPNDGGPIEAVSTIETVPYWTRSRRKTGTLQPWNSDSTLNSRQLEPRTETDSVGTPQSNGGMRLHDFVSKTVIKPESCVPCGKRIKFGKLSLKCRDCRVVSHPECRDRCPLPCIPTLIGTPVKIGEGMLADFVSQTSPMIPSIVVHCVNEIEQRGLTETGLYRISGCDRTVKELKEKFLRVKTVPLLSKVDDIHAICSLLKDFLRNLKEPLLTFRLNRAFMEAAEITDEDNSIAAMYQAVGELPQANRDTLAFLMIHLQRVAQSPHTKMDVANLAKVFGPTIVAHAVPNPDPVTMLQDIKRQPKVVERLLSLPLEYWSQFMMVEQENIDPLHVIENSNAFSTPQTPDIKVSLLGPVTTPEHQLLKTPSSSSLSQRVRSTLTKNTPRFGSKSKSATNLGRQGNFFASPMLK

[25] = target: T6, Mannose-6-phosphate isomerase (Homo sapiens, UniProt P34949); test: phosphomannose isomerase inhibition – biochemical, fluorescence intensity, confirmation (AID 1535)
T6 sequence (P34949 whole entry): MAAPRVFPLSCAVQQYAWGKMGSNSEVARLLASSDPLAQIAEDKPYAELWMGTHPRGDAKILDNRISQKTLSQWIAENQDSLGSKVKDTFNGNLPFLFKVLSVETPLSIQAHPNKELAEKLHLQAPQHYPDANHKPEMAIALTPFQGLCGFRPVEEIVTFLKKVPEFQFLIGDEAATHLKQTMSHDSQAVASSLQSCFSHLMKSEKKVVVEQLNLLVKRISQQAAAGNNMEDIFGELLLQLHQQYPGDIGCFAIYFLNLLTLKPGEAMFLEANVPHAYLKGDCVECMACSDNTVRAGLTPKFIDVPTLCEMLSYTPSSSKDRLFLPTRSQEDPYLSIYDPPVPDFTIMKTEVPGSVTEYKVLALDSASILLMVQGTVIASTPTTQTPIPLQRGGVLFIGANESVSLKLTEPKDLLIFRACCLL

Phosphomannomutase 2 = Phosphomannomutase 2 (Homo sapiens, UniProt O15305); test: Counter screen SAR assay for PMM2 inhibitors via a fluorescence intensity assay. [Related pubchem assays (depositor defined):AID1545, AID1574]
Chain of Phosphomannomutase 2 (O15305 whole entry): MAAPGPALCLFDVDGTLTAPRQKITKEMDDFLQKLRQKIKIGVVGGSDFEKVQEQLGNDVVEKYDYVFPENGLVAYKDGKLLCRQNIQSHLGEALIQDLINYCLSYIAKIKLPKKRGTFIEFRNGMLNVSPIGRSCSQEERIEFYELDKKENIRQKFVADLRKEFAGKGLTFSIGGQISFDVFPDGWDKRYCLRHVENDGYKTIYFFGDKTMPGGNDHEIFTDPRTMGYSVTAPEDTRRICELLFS

T4 sequence (P98170 whole entry): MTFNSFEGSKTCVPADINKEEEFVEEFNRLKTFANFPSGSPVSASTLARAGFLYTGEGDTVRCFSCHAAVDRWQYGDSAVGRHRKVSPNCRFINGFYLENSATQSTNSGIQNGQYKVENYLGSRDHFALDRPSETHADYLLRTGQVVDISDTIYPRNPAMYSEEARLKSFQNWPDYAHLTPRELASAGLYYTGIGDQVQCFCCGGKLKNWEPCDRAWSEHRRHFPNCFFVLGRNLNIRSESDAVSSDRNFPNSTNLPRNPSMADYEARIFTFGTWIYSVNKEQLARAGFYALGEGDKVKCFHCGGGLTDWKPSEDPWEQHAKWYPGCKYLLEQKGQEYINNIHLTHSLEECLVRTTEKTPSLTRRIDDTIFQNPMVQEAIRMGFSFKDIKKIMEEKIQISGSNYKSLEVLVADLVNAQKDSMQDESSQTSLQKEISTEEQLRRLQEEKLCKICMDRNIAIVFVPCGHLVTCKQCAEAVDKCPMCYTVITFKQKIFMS
Chain of CAAX prenyl protease 1 (P47154 whole entry): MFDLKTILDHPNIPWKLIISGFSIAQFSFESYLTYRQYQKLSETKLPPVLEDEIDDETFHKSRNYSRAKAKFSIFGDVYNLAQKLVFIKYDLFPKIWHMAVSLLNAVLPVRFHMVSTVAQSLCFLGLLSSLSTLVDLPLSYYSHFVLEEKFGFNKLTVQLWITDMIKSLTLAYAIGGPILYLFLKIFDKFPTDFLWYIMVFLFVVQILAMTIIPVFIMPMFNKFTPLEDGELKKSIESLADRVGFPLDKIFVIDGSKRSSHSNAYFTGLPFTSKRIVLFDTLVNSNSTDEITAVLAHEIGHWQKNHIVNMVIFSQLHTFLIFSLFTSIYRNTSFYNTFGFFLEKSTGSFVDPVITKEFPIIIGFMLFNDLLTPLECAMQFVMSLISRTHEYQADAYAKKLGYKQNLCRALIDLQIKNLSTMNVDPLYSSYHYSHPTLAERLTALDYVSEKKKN
Chain of Exodeoxyribonuclease V (P04993 whole entry): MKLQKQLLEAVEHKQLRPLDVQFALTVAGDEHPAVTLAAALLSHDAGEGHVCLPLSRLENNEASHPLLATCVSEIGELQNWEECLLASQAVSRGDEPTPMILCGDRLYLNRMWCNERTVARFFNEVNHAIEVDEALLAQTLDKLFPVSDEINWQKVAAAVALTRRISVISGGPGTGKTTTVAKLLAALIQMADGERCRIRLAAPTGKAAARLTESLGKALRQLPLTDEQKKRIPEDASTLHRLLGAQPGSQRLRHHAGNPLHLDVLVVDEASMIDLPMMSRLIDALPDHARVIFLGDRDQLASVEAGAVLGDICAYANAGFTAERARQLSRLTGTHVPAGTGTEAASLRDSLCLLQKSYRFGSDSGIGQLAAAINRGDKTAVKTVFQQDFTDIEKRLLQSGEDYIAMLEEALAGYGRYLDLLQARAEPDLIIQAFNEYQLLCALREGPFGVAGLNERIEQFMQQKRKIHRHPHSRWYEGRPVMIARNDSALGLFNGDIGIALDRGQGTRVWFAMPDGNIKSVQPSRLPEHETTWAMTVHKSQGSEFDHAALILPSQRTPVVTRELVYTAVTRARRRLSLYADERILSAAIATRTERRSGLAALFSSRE
Chain of Exodeoxyribonuclease V (P07648 whole entry): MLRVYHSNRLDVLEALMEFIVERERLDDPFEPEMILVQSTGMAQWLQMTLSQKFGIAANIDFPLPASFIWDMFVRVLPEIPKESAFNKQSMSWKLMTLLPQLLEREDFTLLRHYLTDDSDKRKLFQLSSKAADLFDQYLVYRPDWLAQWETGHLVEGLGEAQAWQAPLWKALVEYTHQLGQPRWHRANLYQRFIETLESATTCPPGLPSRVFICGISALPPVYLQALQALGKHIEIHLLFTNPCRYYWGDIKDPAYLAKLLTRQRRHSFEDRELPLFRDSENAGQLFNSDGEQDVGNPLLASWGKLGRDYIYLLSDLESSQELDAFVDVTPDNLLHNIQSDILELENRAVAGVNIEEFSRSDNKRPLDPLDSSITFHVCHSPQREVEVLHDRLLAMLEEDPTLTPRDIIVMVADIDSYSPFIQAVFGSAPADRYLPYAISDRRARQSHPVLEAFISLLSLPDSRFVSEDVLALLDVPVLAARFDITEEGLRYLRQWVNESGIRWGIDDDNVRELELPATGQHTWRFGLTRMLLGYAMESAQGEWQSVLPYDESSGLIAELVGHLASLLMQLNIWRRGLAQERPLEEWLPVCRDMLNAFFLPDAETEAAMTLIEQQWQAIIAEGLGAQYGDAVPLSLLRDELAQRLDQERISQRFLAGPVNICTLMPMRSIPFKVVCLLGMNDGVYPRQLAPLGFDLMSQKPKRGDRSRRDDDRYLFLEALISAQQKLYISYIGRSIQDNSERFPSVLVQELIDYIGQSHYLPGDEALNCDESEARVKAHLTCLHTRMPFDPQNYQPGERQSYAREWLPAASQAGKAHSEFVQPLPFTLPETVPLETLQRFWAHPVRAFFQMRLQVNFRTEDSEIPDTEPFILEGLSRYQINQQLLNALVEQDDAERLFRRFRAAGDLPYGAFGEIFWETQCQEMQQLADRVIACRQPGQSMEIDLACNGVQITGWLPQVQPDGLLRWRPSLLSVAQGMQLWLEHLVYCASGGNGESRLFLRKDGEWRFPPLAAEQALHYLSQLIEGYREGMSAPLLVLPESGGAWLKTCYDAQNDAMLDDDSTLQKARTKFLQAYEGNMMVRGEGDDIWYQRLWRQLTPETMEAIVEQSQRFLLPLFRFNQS
Chain of Exodeoxyribonuclease V (P08394 whole entry): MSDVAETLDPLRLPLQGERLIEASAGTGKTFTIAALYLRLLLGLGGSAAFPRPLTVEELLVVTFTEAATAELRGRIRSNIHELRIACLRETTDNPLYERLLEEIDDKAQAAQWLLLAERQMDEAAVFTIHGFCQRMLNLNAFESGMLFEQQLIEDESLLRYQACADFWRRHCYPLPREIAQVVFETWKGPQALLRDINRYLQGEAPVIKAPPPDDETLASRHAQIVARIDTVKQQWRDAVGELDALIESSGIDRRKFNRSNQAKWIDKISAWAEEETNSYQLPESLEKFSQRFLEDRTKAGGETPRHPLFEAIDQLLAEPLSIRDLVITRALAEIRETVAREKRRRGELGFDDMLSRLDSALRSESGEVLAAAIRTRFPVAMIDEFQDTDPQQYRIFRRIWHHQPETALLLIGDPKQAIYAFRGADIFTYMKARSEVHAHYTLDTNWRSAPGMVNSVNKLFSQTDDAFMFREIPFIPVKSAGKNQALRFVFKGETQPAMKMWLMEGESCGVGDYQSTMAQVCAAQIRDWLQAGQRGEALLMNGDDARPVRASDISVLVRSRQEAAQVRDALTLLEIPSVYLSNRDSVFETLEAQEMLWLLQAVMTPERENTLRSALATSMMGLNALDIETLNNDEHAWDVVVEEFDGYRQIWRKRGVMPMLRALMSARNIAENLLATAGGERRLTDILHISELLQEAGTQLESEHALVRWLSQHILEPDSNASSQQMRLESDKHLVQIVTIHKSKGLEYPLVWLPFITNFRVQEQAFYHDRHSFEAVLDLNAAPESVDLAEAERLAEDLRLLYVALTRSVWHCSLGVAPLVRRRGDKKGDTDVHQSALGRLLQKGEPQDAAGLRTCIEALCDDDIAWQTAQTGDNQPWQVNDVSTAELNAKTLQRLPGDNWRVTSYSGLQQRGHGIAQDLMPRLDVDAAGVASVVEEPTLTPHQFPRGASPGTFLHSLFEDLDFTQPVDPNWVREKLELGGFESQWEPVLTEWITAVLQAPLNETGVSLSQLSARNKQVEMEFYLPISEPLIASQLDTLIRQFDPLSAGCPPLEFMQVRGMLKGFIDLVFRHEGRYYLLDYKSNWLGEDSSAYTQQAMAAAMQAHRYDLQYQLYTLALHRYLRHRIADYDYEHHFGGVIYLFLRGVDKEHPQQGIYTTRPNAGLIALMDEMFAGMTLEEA
Chain of Trypsin (P00761 whole entry): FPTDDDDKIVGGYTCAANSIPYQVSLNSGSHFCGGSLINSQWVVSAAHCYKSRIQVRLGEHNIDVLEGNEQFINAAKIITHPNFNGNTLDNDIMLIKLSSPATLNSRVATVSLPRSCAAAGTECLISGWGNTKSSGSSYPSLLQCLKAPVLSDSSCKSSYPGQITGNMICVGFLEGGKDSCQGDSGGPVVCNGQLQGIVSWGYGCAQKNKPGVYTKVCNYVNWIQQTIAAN
Chain of Luciferin 4-monooxygenase (P08659 whole entry): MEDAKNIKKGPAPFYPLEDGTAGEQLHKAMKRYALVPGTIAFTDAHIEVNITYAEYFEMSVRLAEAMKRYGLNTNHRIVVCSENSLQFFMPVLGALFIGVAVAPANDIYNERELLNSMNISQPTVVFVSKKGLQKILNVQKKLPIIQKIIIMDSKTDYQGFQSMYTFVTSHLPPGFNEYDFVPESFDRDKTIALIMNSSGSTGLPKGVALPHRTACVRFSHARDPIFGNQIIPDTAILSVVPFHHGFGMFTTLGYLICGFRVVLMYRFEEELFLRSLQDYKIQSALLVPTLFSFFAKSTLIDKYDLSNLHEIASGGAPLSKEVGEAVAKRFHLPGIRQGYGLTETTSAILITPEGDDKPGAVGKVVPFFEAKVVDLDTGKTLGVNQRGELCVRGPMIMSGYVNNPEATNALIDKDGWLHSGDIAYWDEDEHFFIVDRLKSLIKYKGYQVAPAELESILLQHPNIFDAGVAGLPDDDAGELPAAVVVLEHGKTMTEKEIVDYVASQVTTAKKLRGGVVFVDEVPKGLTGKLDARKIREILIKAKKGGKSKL

Cn1c(=O)cc(SCC(=O)NCc2ccc(F)cc2)c2ccccc21
EC50 [1]: > 79.4 µM (inactive)
EC50 [2]: > 79.4 µM (not active)
EC50 [3]: > 79.4 µM (not active)

O=C(CSc1nc2ccccc2s1)Nc1ccc(N2CCOCC2)c(Cl)c1
IC50 [4]: > 119 µM (inactive)
IC50 (Exodeoxyribonuclease V): > 119 µM (inactive)

C[n+]1ccc(-c2ccccc2)c2ccccc21
AC50 (CAAX prenyl protease 2 [5]): 54.7 µM (active)
AC50 (CAAX prenyl protease 1): 2.18 µM (active)
AC50 (Trypsin): 23.1 µM (active)
AC50 (CAAX prenyl protease 2 [6]): 5.8 µM (active)

CCCCC[n+]1cccc2c3ccccc3ccc21
AC50 (CAAX prenyl protease 2 [5]): > 100 µM (inactive)
AC50 (INS1): 4.56 µM (active)
EC50 [7]: > 30 µM (not active)
IC50 [8]: > 80 µM (inactive)
IC50 (Jurkat): > 80 µM (inactive)
AC50 (CAAX prenyl protease 1): 4.72 µM (active)
AC50 (Trypsin): 8.59 µM (active)
AC50 (CAAX prenyl protease 2 [6]): 7.74 µM (active)
EC50 [9]: 3.35 µM (active)
EC50 [10]: 0.466 µM (active)

COc1ccc(-c2nc(-c3ccccn3)no2)cc1
AC50 (INS1): 3.81 µM (active)
AC50 [11]: 26.9 µM (active)
IC50 [8]: > 80 µM (inactive)
AC50 [12]: 7.01 µM (active)
EC50 [13]: 2.15 µM (active)
EC50 [14]: 0.548 µM (active)
AC50 [15]: 1.92 µM (active)
IC50 (Jurkat): 0.88 µM (active)
AC50 [16]: 3.7 µM (active)
AC50 [17]: 0.504 µM (active)
AC50 [18]: 20.4 µM (active)
AC50 [19]: 0.415 µM (active)
AC50 [20]: 3.26 µM (active)
AC50 [21]: 3.8 µM (active)

O=C(CCC1CCCC1)NNC(=O)c1cc2ccccc2cc1O
IC50 [4]: > 119 µM (inactive)
IC50 (Exodeoxyribonuclease V): > 119 µM (inactive)

O=C(/C=C/Nc1ccc(Nc2ccccc2)cc1)c1cccs1
IC50 [22]: > 100 µM (not active)
IC50 [23]: > 100 µM (inactive)
IC50 [24]: 230 µM (active)

Oc1ccc(/N=c2\ssnc2Cl)cc1
IC50 [25]: > 100 µM (inactive)
IC50 (Phosphomannomutase 2): > 100 µM (inactive)
